Results reported in patent US9931379B2, “Oxyntomodulin analogs and methods of making and using same” (The Research Foundation for The State University of New York, priority 2015, dated 2018).
One block for each compound: values may come before it. Starred links: 1 amine or outer side, 2 acyl side, 3 side chain; linkers in the order of their positions; H or OH if unused. Positions of bridges follow the written chain, without caps; N, C: chain ends. Non-standard residues stand in square brackets, D forms with d. Residues, ends and D or L forms follow the SMILES beside them. Biphenyl(4,4'-CH2)2 = c1cc(-c2ccc(C[*:2])cc2)ccc1C[*:1]; X3 = C(=Cc1ccc(C=CC[*:2])cc1)C[*:1]

What was measured:
[1] = biological target: T1, GCGR (Homo sapiens, UniProt P47871); assay: CRE-driven luciferase reporter assay, HEK293 cells overexpressing GCGR; assay type: cell-based; details: for GCGR activation, result in words: comparison
T1 construct: expressed in transfected cells
Protocol: (§1) The surviving cells (referred to as CRE-HEK293) were expanded and then transfected with a G418 selective mammalian expression plasmid encoding human GCGR or GLP-1R, followed by geneticin selection (Life technologies, Carlsbad, Calif.). Single-colony stable cell lines expressing both CRE-luciferase and GCGR/GLP-1R were then established for in vitro activity assays.
(§2) HEK293-GCGR-CRE and HEK293-GLP-1R-CRE cells were seeded in a white 384-well plate at a density of 5,000 cells per well and cultured for 24 hours in DMEM with 10% FBS at 37° C. with 5% CO2. Cells were treated with different peptides in a dose dependent manner. After 24 hours, 10 μL of Bright-Glo reagent (Promega, Madison, Wis.) was added to each well and luminescence was determined using an Envision multilabel plate reader (PerkinElmer, Waltham, Mass.). The EC50 of each peptide was calculated using GraphPad Prism 6 software (GraphPad, San Diego, Calif.).

[2] = biological target: T2, GLP-1R (Homo sapiens, UniProt P43220); assay: CRE-driven luciferase reporter assay, HEK293 cells overexpressing GLP-1R; assay type: cell-based; details: for GLP-1R activation, result in words: comparison
T2 construct: expressed in transfected cells
Protocol: as §1, §2

[3] = system: CD1 mice; assay: Oral glucose tolerance test (OGTT); assay type: in vivo; details: 10 μg/mice s.c. 4 hours before oral glucose challenge
[4] = compared to its D,L counterpart, peptide 1
[5] = compared to its linear counterpart

T1 sequence (P47871 26-477): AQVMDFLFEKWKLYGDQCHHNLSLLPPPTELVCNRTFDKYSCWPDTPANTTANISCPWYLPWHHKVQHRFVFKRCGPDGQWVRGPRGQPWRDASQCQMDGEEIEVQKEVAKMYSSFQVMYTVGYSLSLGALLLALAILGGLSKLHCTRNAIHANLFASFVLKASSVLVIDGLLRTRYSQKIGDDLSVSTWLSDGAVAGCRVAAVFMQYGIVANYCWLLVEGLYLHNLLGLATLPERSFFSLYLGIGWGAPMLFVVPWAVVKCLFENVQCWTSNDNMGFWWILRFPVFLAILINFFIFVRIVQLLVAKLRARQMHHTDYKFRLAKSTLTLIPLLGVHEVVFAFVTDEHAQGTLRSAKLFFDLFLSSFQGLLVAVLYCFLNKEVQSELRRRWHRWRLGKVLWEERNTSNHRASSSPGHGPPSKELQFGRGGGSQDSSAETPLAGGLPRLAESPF
T2 sequence (P43220 24-463): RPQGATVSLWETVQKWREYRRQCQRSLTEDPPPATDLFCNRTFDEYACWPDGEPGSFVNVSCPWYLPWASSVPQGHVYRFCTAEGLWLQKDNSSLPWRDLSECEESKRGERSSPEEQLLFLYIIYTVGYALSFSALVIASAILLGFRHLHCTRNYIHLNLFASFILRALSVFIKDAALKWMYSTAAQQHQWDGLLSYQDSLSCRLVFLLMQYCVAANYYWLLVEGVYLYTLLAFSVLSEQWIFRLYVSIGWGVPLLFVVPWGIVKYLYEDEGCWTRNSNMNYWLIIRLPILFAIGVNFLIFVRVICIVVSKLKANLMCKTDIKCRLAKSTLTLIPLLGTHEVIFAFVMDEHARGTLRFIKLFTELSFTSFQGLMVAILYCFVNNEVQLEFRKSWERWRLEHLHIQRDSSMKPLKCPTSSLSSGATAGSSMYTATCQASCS

Compound: CC[C@H](C)[C@H](NC(=O)[C@H](CC(N)=O)NC(=O)[C@H](CC(N)=O)NC(=O)[C@H](CCCNC(=N)N)NC(=O)[C@H](CC(N)=O)NC(=O)[C@H](CCCNC(=N)N)NC(=O)[C@H](CCCCN)NC(=O)[C@@H](NC(=O)[C@H](CC(N)=O)NC(=O)[C@H](CCSC)NC(=O)[C@H](CC(C)C)NC(=O)[C@H](Cc1c[nH]c2ccccc12)NC(=O)[C@@H]1CSCC=Cc2ccc(cc2)C=CCSC[C@H](NC(=O)[C@H](CCC(=O)O)NC(=O)[C@H](CC(=O)O)NC(=O)[C@H](CC(C)C)NC(=O)[C@H](Cc2ccc(O)cc2)NC(=O)[C@H](CCCCN)NC(=O)[C@H](CO)NC(=O)[C@H](Cc2ccc(O)cc2)NC(=O)[C@H](CC(=O)O)NC(=O)[C@H](CO)NC(=O)[C@@H](NC(=O)[C@H](Cc2ccccc2)NC(=O)[C@@H](NC(=O)CNC(=O)[C@H](CCC(N)=O)NC(=O)[C@@H](CO)NC(=O)[C@@H](N)Cc2c[nH]cn2)[C@@H](C)O)[C@@H](C)O)C(=O)N[C@@H](C)C(=O)N[C@@H](C)C(=O)N[C@@H](CCCCN)C(=O)N[C@@H](CCC(=O)O)C(=O)N[C@@H](Cc2ccccc2)C(=O)N[C@@H]([C@@H](C)CC)C(=O)N1)[C@@H](C)O)C(=O)N[C@@H](C)C(N)=O [compound 12] (H-H[dS]QGTFTSDYSKYLDECAAKEFICWLMNTKRNRNNIA-NH2; linker 17-24 via X3)
EC50 ([1]; Table 2, mean and standard deviation, assay performed three times, read-out: Agonist activity (nM) GCGR): 1 ± 0.12 nM
EC50 ([2]; Table 2, mean and standard deviation, assay performed three times, read-out: Agonist activity (nM) GLP-1R): 0.45 ± 0.03 nM

Compound: CC[C@H](C)[C@H](NC(=O)[C@H](CC(N)=O)NC(=O)[C@H](CC(N)=O)NC(=O)[C@H](CCCNC(=N)N)NC(=O)[C@H](CC(N)=O)NC(=O)[C@H](CCCNC(=N)N)NC(=O)[C@H](CCCCN)NC(=O)[C@@H](NC(=O)[C@H](CC(N)=O)NC(=O)[C@H](CCSC)NC(=O)[C@H](CC(C)C)NC(=O)[C@H](Cc1c[nH]c2ccccc12)NC(=O)[C@H](CS)NC(=O)[C@@H](NC(=O)[C@H](Cc1ccccc1)NC(=O)[C@H](CC(=O)O)NC(=O)[C@H](CCC(N)=O)NC(=O)[C@H](C)NC(=O)[C@H](CCCNC(=N)N)NC(=O)[C@H](CS)NC(=O)[C@H](CCC(=O)O)NC(=O)[C@H](CC(=O)O)NC(=O)[C@H](CC(C)C)NC(=O)[C@H](Cc1ccc(O)cc1)NC(=O)[C@H](CCCCN)NC(=O)[C@H](CO)NC(=O)[C@H](Cc1ccc(O)cc1)NC(=O)[C@H](CC(=O)O)NC(=O)[C@H](CO)NC(=O)[C@@H](NC(=O)[C@H](Cc1ccccc1)NC(=O)[C@@H](NC(=O)CNC(=O)[C@H](CCC(N)=O)NC(=O)[C@@H](CO)NC(=O)[C@@H](N)Cc1c[nH]cn1)[C@@H](C)O)[C@@H](C)O)C(C)C)[C@@H](C)O)C(=O)N[C@@H](C)C(N)=O [peptide 5] (H-H[dS]QGTFTSDYSKYLDECRAQDFVCWLMNTKRNRNNIA-NH2)
GCGR activation, result in words [1]: modest enhancement
GLP-1R activation, result in words [2]: modest enhancement

Compound: CC[C@H](C)[C@H](NC(=O)[C@H](CC(N)=O)NC(=O)[C@H](CC(N)=O)NC(=O)[C@H](CCCNC(=N)N)NC(=O)[C@H](CC(N)=O)NC(=O)[C@H](CCCNC(=N)N)NC(=O)[C@H](CCCCN)NC(=O)[C@@H](NC(=O)[C@H](CC(N)=O)NC(=O)[C@H](CCSC)NC(=O)[C@H](CC(C)C)NC(=O)[C@H](Cc1c[nH]c2ccccc12)NC(=O)[C@H](CS)NC(=O)[C@@H](NC(=O)[C@H](Cc1ccccc1)NC(=O)[C@H](CC(=O)O)NC(=O)[C@H](CCC(N)=O)NC(=O)[C@H](C)NC(=O)[C@H](CCCNC(=N)N)NC(=O)[C@@H](CS)NC(=O)[C@H](CO)NC(=O)[C@H](CC(=O)O)NC(=O)[C@H](CC(C)C)NC(=O)[C@H](Cc1ccc(O)cc1)NC(=O)[C@H](CCCCN)NC(=O)[C@H](CO)NC(=O)[C@H](Cc1ccc(O)cc1)NC(=O)[C@H](CC(=O)O)NC(=O)[C@H](CO)NC(=O)[C@@H](NC(=O)[C@H](Cc1ccccc1)NC(=O)[C@@H](NC(=O)CNC(=O)[C@H](CCC(N)=O)NC(=O)[C@@H](CO)NC(=O)[C@@H](N)Cc1c[nH]cn1)[C@@H](C)O)[C@@H](C)O)C(C)C)[C@@H](C)O)C(=O)N[C@@H](C)C(N)=O [peptide 1] (H-H[dS]QGTFTSDYSKYLDS[dC]RAQDFVCWLMNTKRNRNNIA-NH2)
GCGR activation, result in words [1]: more potently than peptide 2
GLP-1R activation, result in words [2]: reduced potency

Compound: CC[C@H](C)[C@H](NC(=O)[C@H](CC(N)=O)NC(=O)[C@H](CC(N)=O)NC(=O)[C@H](CCCNC(=N)N)NC(=O)[C@H](CC(N)=O)NC(=O)[C@H](CCCNC(=N)N)NC(=O)[C@H](CCCCN)NC(=O)[C@@H](NC(=O)[C@H](CC(N)=O)NC(=O)[C@H](CCSC)NC(=O)[C@H](CC(C)C)NC(=O)[C@H](Cc1c[nH]c2ccccc12)NC(=O)[C@@H]1CSCc2ccc(cc2)-c2ccc(cc2)CSC[C@@H](NC(=O)[C@H](CO)NC(=O)[C@H](CC(=O)O)NC(=O)[C@H](CC(C)C)NC(=O)[C@H](Cc2ccc(O)cc2)NC(=O)[C@H](CCCCN)NC(=O)[C@H](CO)NC(=O)[C@H](Cc2ccc(O)cc2)NC(=O)[C@H](CC(=O)O)NC(=O)[C@H](CO)NC(=O)[C@@H](NC(=O)[C@H](Cc2ccccc2)NC(=O)[C@@H](NC(=O)CNC(=O)[C@H](CCC(N)=O)NC(=O)[C@@H](CO)NC(=O)[C@@H](N)Cc2c[nH]cn2)[C@@H](C)O)[C@@H](C)O)C(=O)N[C@@H](CCCNC(=N)N)C(=O)N[C@@H](C)C(=O)N[C@@H](CCC(N)=O)C(=O)N[C@@H](CC(=O)O)C(=O)N[C@@H](Cc2ccccc2)C(=O)N[C@@H](C(C)C)C(=O)N1)[C@@H](C)O)C(=O)N[C@@H](C)C(N)=O [peptide 3] (H-H[dS]QGTFTSDYSKYLDS[dC]RAQDFVCWLMNTKRNRNNIA-NH2; linker 17-24 via Biphenyl(4,4'-CH2)2)
increase in activity toward GCGR on crosslinking [1, 5]: 16 fold
increase in activity toward GLP-1R on crosslinking [2, 5]: 2 fold

Compound: exendin-4 [Ex-4, reference compound]
decrease of the area under curve (AUC) of blood glucose [3]: 30%

More lines, now with the values ahead:

GCGR activation, result in words [1]: less potent
Compound: CC[C@H](C)[C@H](NC(=O)[C@H](CC(N)=O)NC(=O)[C@H](CC(N)=O)NC(=O)[C@H](CCCNC(=N)N)NC(=O)[C@H](CC(N)=O)NC(=O)[C@H](CCCNC(=N)N)NC(=O)[C@H](CCCCN)NC(=O)[C@@H](NC(=O)[C@H](CC(N)=O)NC(=O)[C@H](CCSC)NC(=O)[C@H](CC(C)C)NC(=O)[C@H](Cc1c[nH]c2ccccc12)NC(=O)[C@H](CS)NC(=O)[C@@H](NC(=O)[C@H](Cc1ccccc1)NC(=O)[C@H](CC(C)C)NC(=O)[C@H](CCCNC(=N)N)NC(=O)[C@@H](NC(=O)[C@H](C)NC(=O)[C@H](CS)NC(=O)[C@H](CCC(=O)O)NC(=O)[C@H](CC(=O)O)NC(=O)[C@H](CC(C)C)NC(=O)[C@H](Cc1ccc(O)cc1)NC(=O)[C@H](CCCCN)NC(=O)[C@H](CO)NC(=O)[C@H](Cc1ccc(O)cc1)NC(=O)[C@H](CC(=O)O)NC(=O)[C@H](CO)NC(=O)[C@@H](NC(=O)[C@H](Cc1ccccc1)NC(=O)[C@@H](NC(=O)CNC(=O)[C@H](CCC(N)=O)NC(=O)[C@@H](CO)NC(=O)[C@@H](N)Cc1c[nH]cn1)[C@@H](C)O)[C@@H](C)O)C(C)C)[C@@H](C)CC)[C@@H](C)O)C(=O)N[C@@H](C)C(N)=O [peptide 8] (H-H[dS]QGTFTSDYSKYLDECAVRLFICWLMNTKRNRNNIA-NH2)

increase in GCGR activity [1, 4]: roughly 2 fold
increase in GLP-1R activity [2, 4]: roughly 2 fold
Compound: CC[C@H](C)[C@H](NC(=O)[C@H](CC(N)=O)NC(=O)[C@H](CC(N)=O)NC(=O)[C@H](CCCNC(=N)N)NC(=O)[C@H](CC(N)=O)NC(=O)[C@H](CCCNC(=N)N)NC(=O)[C@H](CCCCN)NC(=O)[C@@H](NC(=O)[C@H](CC(N)=O)NC(=O)[C@H](CCSC)NC(=O)[C@H](CC(C)C)NC(=O)[C@H](Cc1c[nH]c2ccccc12)NC(=O)[C@H](CS)NC(=O)[C@@H](NC(=O)[C@H](Cc1ccccc1)NC(=O)[C@H](CC(=O)O)NC(=O)[C@H](CCC(N)=O)NC(=O)[C@H](C)NC(=O)[C@H](CCCNC(=N)N)NC(=O)[C@H](CS)NC(=O)[C@H](CO)NC(=O)[C@H](CC(=O)O)NC(=O)[C@H](CC(C)C)NC(=O)[C@H](Cc1ccc(O)cc1)NC(=O)[C@H](CCCCN)NC(=O)[C@H](CO)NC(=O)[C@H](Cc1ccc(O)cc1)NC(=O)[C@H](CC(=O)O)NC(=O)[C@H](CO)NC(=O)[C@@H](NC(=O)[C@H](Cc1ccccc1)NC(=O)[C@@H](NC(=O)CNC(=O)[C@H](CCC(N)=O)NC(=O)[C@@H](CO)NC(=O)[C@@H](N)Cc1c[nH]cn1)[C@@H](C)O)[C@@H](C)O)C(C)C)[C@@H](C)O)C(=O)N[C@@H](C)C(N)=O [peptide 4] (H-H[dS]QGTFTSDYSKYLDSCRAQDFVCWLMNTKRNRNNIA-NH2)
